Patent US11945806B2, “Stabilization of amyloidogenic immunoglobulin light chains” (The Scripps Research Institute, priority 2019, dated 2024)

Target: WIL-FL (Homo sapiens, UniProt P01721)
Assay: Unlabeled LC Protease Sensitivity Assay (proteinase K)
Format: biochemical
Details: small molecule 10 μM, WIL-FL 5 μM, proteinase K 50 nM, 2 hours at 37° C.
Method in brief: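 Compound at 10 μM (1% DMSO) is mixed with 5 μM WIL-FL and 50 nM proteinase K in PBS pH 7.4/0.02% Pluronic F-127, 37 °C, 2 h, then quenched with PMSF. Remaining protein measured by SEC-UPLC peak area at 280 nm and expressed as fold protection relative to vehicle and no-protease controls.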

| SMILES | Protection (fold protection of LC from protease) |
| --- | --- |
| CCN(CC)c1ccc2c(C)c(CCN3CC4(CCN(c5ncnc6[nH]ncc56)CC4)NC3=O)c(=O)oc2c1 [Compound 222, 3-(2-(7-(diethylamino)-4-methyl-2-oxo-2H-chromen-3-yl)ethyl)-8-(1H-pyrazolo[3,4-d]pyrimidin-4-yl)-1,3,8-triazaspiro[4.5]decan-2-one] | C (C ≥ 0.6) |
| Cc1c(CN2CCOCC2)c(=O)oc2cc(OC(C)c3ccccc3)ccc12 (stereo not shown) [Compound 152, 4-methyl-3-(morpholinomethyl)-7-(1-phenylethoxy)-2H-chromen-2-one] | B (3 ≤ B < 0.6) |
| C#CCN(C)c1ccc2c(C)cc(=O)oc2c1 [Compound 257, 4-methyl-7-(methyl(prop-2-yn-1-yl)amino)-2H-chromen-2-one] | A (A < 0.3)) |
| C#CCNC(=O)c1ccc2c(C)cc(=O)oc2c1 [Compound 267, 4-methyl-2-oxo-N-(prop-2-yn-1-yl)-2H-chromene-7-carboxamide] | A (A < 0.3)) |
| Cc1cc(=O)oc2cc(NCC#N)ccc12 [Compound 269, 2-((4-methyl-2-oxo-2H-chromen-7-yl)amino)acetonitrile] | A (A < 0.3)) |
| CCN(CC)c1ccc2c(C)c(CCN3CC4(CCN(c5nccn6ccnc56)CC4)NC3=O)c(=O)oc2c1 [Compound 223, 3-(2-(7-(diethylamino)-4-methyl-2-oxo-2H-chromen-3-yl)ethyl)-8-(imidazo[1,2-a]pyrazin-8-yl)-1,3,8-triazaspiro[4.5]decan-2-one] | C (C ≥ 0.6) |
| CCN(CC)c1ccc2c(O)cc(=O)oc2c1 [Compound 27, 7-(diethylamino)-4-hydroxy-2H-chromen-2-one] | A (A < 0.3)) |
| Cc1cc(=O)oc2cc(N3CCCCC3)ccc12 [Compound 48, 4-methyl-7-(piperidin-1-yl)-2H-chromen-2-one] | A (A < 0.3)) |
| CCN(CC)c1ccc2c(C)c(CCN3C(=O)NC4(CCN(C(=O)c5c[nH]cn5)CC4)C3=O)c(=O)oc2c1 [Compound 176, 3-(2-(7-(diethylamino)-4-methyl-2-oxo-2H-chromen-3-yl)ethyl)-8-(1H-imidazole-4-carbonyl)-1,3,8-triazaspiro[4.5]decane-2,4-dione] | B (3 ≤ B < 0.6) |
| CCN(C)c1ccc2c(C)cc(=O)oc2c1 [Compound 268, 7-(ethyl(methyl)amino)-4-methyl-2H-chromen-2-one] | A (A < 0.3)) |
| CCN(CC)c1ccc2c(C)c(CCN3C(=O)NC4(CCN(c5ncccn5)CC4)C3=O)c(=O)oc2c1 [Compound 185, 3-(2-(7-(diethylamino)-4-methyl-2-oxo-2H-chromen-3-yl)ethyl)-8-(pyrimidin-2-yl)-1,3,8-triazaspiro[4.5]decane-2,4-dione] | C (C ≥ 0.6) |
| Cc1cc(=O)oc2cc(OC(C)c3cccnc3)ccc12 (stereo not shown) [Compound 171, 4-methyl-7-(1-(pyridin-3-yl)ethoxy)-2H-chromen-2-one] | A (A < 0.3)) |
| CCN(CC)c1ccc2c(C)c(CCN3C(=O)NC4(CCN(c5ncc(C#N)cn5)CC4)C3=O)c(=O)oc2c1 [Compound 189, 2-(3-(2-(7-(diethylamino)-4-methyl-2-oxo-2H-chromen-3-yl)ethyl)-2,4-dioxo-1,3,8-triazaspiro[4.5]decan-8-yl)pyrimidine-5-carbonitrile] | A (A < 0.3)) |
| CCN(CC)c1ccc2c(C)c(CCN3C(=O)NC4(CCN(c5nccn6cnnc56)CC4)C3=O)c(=O)oc2c1 [Compound 217, 8-([1,2,4]triazolo[4,3-a]pyrazin-8-yl)-3-(2-(7-(diethylamino)-4-methyl-2-oxo-2H-chromen-3-yl)ethyl)-1,3,8-triazaspiro[4.5]decane-2,4-dione] | C (C ≥ 0.6) |
| CCN(CC)c1ccc2c(C)c(CCN3C(=O)NC4(CCN(c5nccc(C#N)n5)CC4)C3=O)c(=O)oc2c1 [Compound 190, 2-(3-(2-(7-(diethylamino)-4-methyl-2-oxo-2H-chromen-3-yl)ethyl)-2,4-dioxo-1,3,8-triazaspiro[4.5]decan-8-yl)pyrimidine-4-carbonitrile] | C (C ≥ 0.6) |
| CCN(CC)c1ccc2c(C)c(CCN3C(=O)NC4(CCN(C(=O)c5ncccn5)CC4)C3=O)c(=O)oc2c1 [Compound 206, 3-(2-(7-(diethylamino)-4-methyl-2-oxo-2H-chromen-3-yl)ethyl)-8-(pyrimidine-2-carbonyl)-1,3,8-triazaspiro[4.5]decane-2,4-dione] | A (A < 0.3)) |
| Cc1cc(=O)oc2cc(OC(C)c3c(F)cccc3F)ccc12 (stereo not shown) [Compound 51, 7-(1-(2,6-difluorophenyl)ethoxy)-4-methyl-2H-chromen-2-one] | A (A < 0.3)) |
| CCN(CCF)c1ccc2c(C)cc(=O)oc2c1 [Compound 273, 7-(ethyl(2-fluoroethyl)amino)-4-methyl-2H-chromen-2-one] | A (A < 0.3)) |
| CCN(CC#N)c1ccc2c(C)cc(=O)oc2c1 [Compound 272, 2-(ethyl(4-methyl-2-oxo-2H-chromen-7-yl)amino)acetonitrile] | A (A < 0.3)) |

More lines, now with the values ahead:

| Protection (fold protection of LC from protease) | SMILES |
| --- | --- |
| C (C ≥ 0.6) | CCN(CC)c1ccc2c(C)c(CCOC(=O)NCCNc3ccccn3)c(=O)oc2c1 [Compound 132, 2-(7-(diethylamino)-4-methyl-2-oxo-2H-chromen-3-yl)ethyl (2-(pyridin-2-ylamino)ethyl)carbamate] |
| A (A < 0.3)) | CCN(CC)c1ccc2c(C)c(CCNC(=O)NCc3ccccn3)c(=O)oc2c1 [Compound 276, 1-(2-(7-(diethylamino)-4-methyl-2-oxo-2H-chromen-3-yl)ethyl)-3-(pyridin-2-ylmethyl)urea] |
| A (A < 0.3)) | CCN(CC)c1ccc2c(C)c(CCOC(=O)N3CCS(=O)(=O)CC3)c(=O)oc2c1 [Compound 112, 2-(7-(diethylamino)-4-methyl-2-oxo-2H-chromen-3-yl)ethyl thiomorpholine-4-carboxylate 1,1-dioxide] |
| C (C ≥ 0.6) | CCN(CC)c1ccc2c(C)c(CCOC(=O)NCc3cccc(-c4ncccn4)c3)c(=O)oc2c1 [Compound 155, 2-(7-(diethylamino)-4-methyl-2-oxo-2H-chromen-3-yl)ethyl (3-(pyrimidin-2-yl)benzyl)carbamate] |
| A (A < 0.3)) | CCN(CC)c1ccc2c(C)c(CCOC(=O)NCCc3ccncc3)c(=O)oc2c1 [Compound 84, 2-(7-(diethylamino)-4-methyl-2-oxo-2H-chromen-3-yl)ethyl (2-(pyridin-4-yl)ethyl)carbamate] |
| A (A < 0.3)) | CCN(CC)c1ccc2c(C)c(CCOC(=O)N3CC(F)(F)C3)c(=O)oc2c1 [Compound 108, 2-(7-(diethylamino)-4-methyl-2-oxo-2H-chromen-3-yl)ethyl 3,3-difluoroazetidine-1-carboxylate] |
| B (3 ≤ B < 0.6) | CCN(CC)c1ccc2c(C)c(CCNC(=O)NC)c(=O)oc2c1 [Compound 131, 1-(2-(7-(diethylamino)-4-methyl-2-oxo-2H-chromen-3-yl)ethyl)-3-methylurea] |
| A (A < 0.3)) | CCN(CC)c1ccc2c(C)c(CCN3C(=O)NC4(CCN(S(=O)(=O)c5ccccc5)CC4)C3=O)c(=O)oc2c1 [Compound 200, 3-(2-(7-(diethylamino)-4-methyl-2-oxo-2H-chromen-3-yl)ethyl)-8-(phenylsulfonyl)-1,3,8-triazaspiro[4.5]decane-2,4-dione] |
| A (A < 0.3)) | CCN(CC)c1ccc2c(C)c(CC(=O)NCCCN(C)C)c(=O)oc2c1 [Compound 59, 2-(7-(diethylamino)-4-methyl-2-oxo-2H-chromen-3-yl)-N-(3-(dimethylamino)propyl)acetamide] |
| B (3 ≤ B < 0.6) | CCN(CC)c1ccc2c(C)c(CCOC(=O)NCc3ccc4[nH]ccc4c3)c(=O)oc2c1 [Compound 137, 2-(7-(diethylamino)-4-methyl-2-oxo-2H-chromen-3-yl)ethyl ((1H-indol-5-yl)methyl)carbamate] |
| C (C ≥ 0.6) | CCN(CC)c1ccc2c(C)c(CCOC(=O)NCc3cccc(S(N)(=O)=O)c3)c(=O)oc2c1 [Compound 149, 2-(7-(diethylamino)-4-methyl-2-oxo-2H-chromen-3-yl)ethyl (3-sulfamoylbenzyl)carbamate] |
| B (3 ≤ B < 0.6) | CCN(CC)c1ccc2c(C)c(CCOC(=O)NCc3cncc(NC(C)=O)c3)c(=O)oc2c1 [Compound 128, 2-(7-(diethylamino)-4-methyl-2-oxo-2H-chromen-3-yl)ethyl ((5-acetamidopyridin-3-yl)methyl)carbamate] |
| C (C ≥ 0.6) | CCN(CC)c1ccc2c(C)c(CCNC(=O)NCc3ccccc3)c(=O)oc2c1 [Compound 278, 1-benzyl-3-(2-(7-(diethylamino)-4-methyl-2-oxo-2H-chromen-3-yl)ethyl)urea] |
| A (A < 0.3)) | CCN(CC)c1ccc2c(C)c(CCOC(=O)N(C)CCc3cccnc3)c(=O)oc2c1 [Compound 102, 2-(7-(diethylamino)-4-methyl-2-oxo-2H-chromen-3-yl)ethyl methyl(2-(pyridin-3-yl)ethyl)carbamate] |
| C (C ≥ 0.6) | CCN(CC)c1ccc2c(C)c(CCN3C(=O)NC4(CCN(C(=O)c5ncc[nH]5)CC4)C3=O)c(=O)oc2c1 [Compound 177, 3-(2-(7-(diethylamino)-4-methyl-2-oxo-2H-chromen-3-yl)ethyl)-8-(1H-imidazole-2-carbonyl)-1,3,8-triazaspiro[4.5]decane-2,4-dione] |
